The supplement of paper PMC10307832

How the values were obtained:
Test in all cases: relative viability (nuclei count vs DMSO), 5 days (fraction); higher = more cells survive
EHT 1864 + Decitabine = compound: C1COCCN1CC2=CC(=O)C(=CO2)OCCCCCSC3=C4C=CC(=CC4=NC=C3)C(F)(F)F [EHT 1864] + Nc1ncn([C@H]2C[C@H](O)[C@@H](CO)O2)c(=O)n1 [Decitabine] (partner 2 µM)
In short: (§1)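 For relative viability, nuclei counts in treated wells were divided by those in vehicle wells. Lung cancer cell lines had been pin-tool dosed in 1536-well plates the day after seeding and cultured for 5 days, then fixed and stained in one step (final 0.05% Triton X-100, 1% formaldehyde, 1 ug/ml Hoechst) and imaged at 4×. Doses were one drug alone or a fixed anchor-drug dose plus five library-drug doses (not always all listed) in √10 steps, and values are duplicate-plate medians.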

EHT 1864 + Foretinib = compound: C1COCCN1CC2=CC(=O)C(=CO2)OCCCCCSC3=C4C=CC(=CC4=NC=C3)C(F)(F)F [EHT 1864] + COc1cc2c(Oc3ccc(NC(=O)C4(C(=O)Nc5ccc(F)cc5)CC4)cc3F)ccnc2cc1OCCCN1CCOCC1 [Foretinib] (partner 0.25 µM)
In short: as §1

EHT 1864 + Luminespib = compound: C1COCCN1CC2=CC(=O)C(=CO2)OCCCCCSC3=C4C=CC(=CC4=NC=C3)C(F)(F)F [EHT 1864] + CCNC(=O)c1noc(-c2cc(C(C)C)c(O)cc2O)c1-c1ccc(CN2CCOCC2)cc1 [Luminespib] (partner 0.01 µM)
In short: as §1

EHT 1864 + Dasatinib = compound: C1COCCN1CC2=CC(=O)C(=CO2)OCCCCCSC3=C4C=CC(=CC4=NC=C3)C(F)(F)F [EHT 1864] + Cc1nc(Nc2ncc(C(=O)Nc3c(C)cccc3Cl)s2)cc(N2CCN(CCO)CC2)n1 [Dasatinib] (partner 0.075 µM)
In short: as §1

Cell Line | relative viability (EHT 1864 + Decitabine; first compound 0.04 µM) | relative viability (EHT 1864 + Decitabine; first compound 0.4 µM) | relative viability (EHT 1864 + Decitabine; first compound 1.265 µM) | relative viability (EHT 1864 + Decitabine; first compound 4 µM) | relative viability (EHT 1864 + Foretinib; first compound 0.04 µM) | relative viability (EHT 1864 + Foretinib; first compound 0.4 µM) | relative viability (EHT 1864 + Foretinib; first compound 1.265 µM) | relative viability (EHT 1864 + Foretinib; first compound 4 µM) | relative viability (EHT 1864 + Luminespib; first compound 0.04 µM) | relative viability (EHT 1864 + Luminespib; first compound 0.4 µM) | relative viability (EHT 1864 + Luminespib; first compound 1.265 µM) | relative viability (EHT 1864 + Luminespib; first compound 4 µM) | relative viability (EHT 1864 + Dasatinib; first compound 0.04 µM) | relative viability (EHT 1864 + Dasatinib; first compound 0.4 µM) | relative viability (EHT 1864 + Dasatinib; first compound 1.265 µM) | relative viability (EHT 1864 + Dasatinib; first compound 4 µM) | relative viability (EHT 1864 + Decitabine; first compound 0.1265 µM) | relative viability (EHT 1864 + Foretinib; first compound 0.1265 µM) | relative viability (EHT 1864 + Luminespib; first compound 0.1265 µM) | relative viability (EHT 1864 + Dasatinib; first compound 0.1265 µM)
NCI-H2087 | 0.253 | 0.267 | 0.287 | 0.3 | 1.01 | 1 | 1.01 | 0.845 | 0.175 | 0.143 | 0.168 | 0.135 | 0.851 | 0.758 | 0.846 | 0.825 |  |  |  | 
NCI-H2126 | 0.652 | 0.547 | 0.62 | 0.566 | 1.17 | 1.19 | 1.22 | 1.22 | 0.796 | 0.906 | 0.879 | 0.866 | 0.604 | 0.649 | 0.484 | 0.545 | 0.572 | 1.22 | 0.902 | 0.574
NCI-H2170 | 0.488 | 0.488 | 0.473 | 0.467 | 1.01 | 0.998 | 0.943 | 1 | 0.725 | 0.745 | 0.63 | 0.612 | 0.608 | 0.688 | 0.474 | 0.563 | 0.451 | 1.01 | 0.751 | 0.579
NCI-H2342 | 0.712 | 0.787 | 0.751 | 0.763 | 1.04 | 1.07 | 0.963 | 1.06 | 0.669 | 0.744 | 0.702 | 0.759 | 0.317 | 0.315 | 0.309 | 0.306 | 0.562 | 0.903 | 0.651 | 0.307
NCI-H2347 | 0.571 | 0.675 | 0.64 | 0.559 | 0.974 | 0.862 | 0.363 | 0.809 | 0.859 | 0.401 |  | 0.745 | 0.358 | 0.308 |  | 0.332 | 0.488 |  | 0.47 | 0.251
NCI-H2405 | 0.832 | 0.785 | 0.736 | 0.772 | 1.05 | 1.07 | 0.999 | 1.13 | 0.745 | 0.703 | 0.581 | 0.603 | 0.205 | 0.241 | 0.227 | 0.234 | 0.717 | 1.05 | 0.667 | 0.196
NCI-H3122 | 0.373 | 0.42 | 0.432 | 0.339 | 0.938 | 0.961 | 0.982 | 0.885 | 0.102 | 0.089 | 0.101 | 0.102 | 0.809 | 0.667 | 0.817 | 0.885 | 0.423 | 0.983 | 0.0742 | 0.285
PC-3 [JPC-3] | 0.801 | 0.877 | 0.954 | 0.844 | 1.04 | 0.943 | 0.968 | 0.936 | 0.742 | 0.664 | 0.673 | 0.696 | 1.05 | 0.996 | 1.02 | 0.896 | 0.745 | 0.887 | 0.695 | 0.901
